In this assay the test system is Human RSV-A (“Long” strain). The assay is described as follows: RSV in vitro cytoprotection assay (CPE, ATPlite) in HEp-2 cells. The note with it: human respiratory syncytial virus, 96 h; HEp-2 cells, 4-day incubation, ATPlite readout; read-out: Human RSV-A (“Long” strain) EC50. Format: cell-based. The source says:
RSV is a single stranded negative sense RNA virus that causes respiratory tract infections which can be dangerous to infants, the elderly, and immunosuppressed individuals. Currently there is no vaccine, and therapeutic options are both costly and of limited effectiveness. These approved treatments are Ribavirin, and Palivizumab/Synagis (a monoclonal antibody). RSV has two genotypes, A and B, which differ primarily in the structure of the virus' surface “G” attachment protein. Our current primary screen focuses on RSV-A and uses an in vitro cytoprotection assay where compounds are added in 2-fold dilutions to cells which are then subjected to fully replicative viral particles. Cell viability is measured several days later along with separate measurements of compound cytotoxicity. This report focuses on the results of our most recent screening of compounds.
HEp-2 cells, (originally derived from tumors grown in irradiated-cortisonised weanling rats that had been injected with epidermoid carcinoma tissue from a person's larynx, but later found to be indistinguishable from HeLa cells by PCR DNA analysis), were used for the culturing of genotype A, “Long” strain RSV. Flasks were inoculated with RSV and viral stocks were collected once cytopathic effect (CPE) was greater than 90%. Viral stocks in 25% sucrose media were snap frozen using liquid nitrogen to increase viral stability. Viral stock titers were quantified by tissue culture infectious dose 50% (TCID50) using 8,000 cells per well and 3-fold viral dilutions across a 96-well plate, cultured for 4 days.
Following extensive parameter testing, the final assay is run as follows: HEp-2 cells are seeded into the inner 60 wells of a 96-well plate at 8,000 cells per well in a volume of 50 μL using Growth Media (DMEM without phenol red, 1% L-Glut, 1% Penn/Strep, 1% nonessential amino acids, 10% FBS). 2-Fold serial dilutions of control and test compounds are added to the wells in duplicate in a total volume of 25 μL. Viral stock is then added to the wells in a volume of […] the total volume of each well to 100 μL. Each 96-well plate has a control column of 6 wells with cells and virus but no compound (negative control, max CPE), a column with cells but no compound or virus (positive control, minimum CPE), and a column with no cells or virus or compound (background plate/reagent control). The control wells with cells but no virus are given an additional 25 uL of growth media containing an equal quantity of sucrose as those wells receiving the viral stock in order to keep consistent in media and volume conditions. The outer wells of the plate are filled with 125 μL of growth media to act as a thermal and evaporative moat around the test wells. Following a 4-day incubation period, the plates are read using ATPlite (50 uL added per well), which quantifies the amount of ATP (a measure of cell health) present in each well. Assay plates are read using the Envision luminometer. In parallel, cytotoxicity is examined on an additional 96-well plate treated in an identical manner, but substituting the 25 μL of viral stock for 25 μL of growth media. […] EC50 ranges are as follows: A<0.01 μM; B 0.01-0.05 μM; C>0.05 μM.
For orientation: ATP-based viability assays read luminescence as a measure of living cells.
The term EC50 denotes the concentration giving half of the maximal effect. For `O=C(Nc1ccc(C(=O)N2CCc3cc(-c4nc5cc(F)c(F)cc5[nH]4)sc3-c3ccc(F)cc32)cc1)c1cccnc1N1CC2(CCOCC2)C1` [Example 41], the EC50 is more than 50 nM.
In the case of `O=C(Nc1ccc(C(=O)N2CCc3cc(-c4nc5ccc(F)cc5[nH]4)sc3-c3ccc(F)cc32)cc1)c1cc(F)cnc1N1CC2(CCOCC2)C1` [Example 42], the EC50 fell in the range of 10 to 50 nM.
The figure for `O=C(Nc1ccc(C(=O)N2CCc3cc(-c4nc5cccc(F)c5[nH]4)sc3-c3ccc(F)cc32)cc1)c1cc(F)cnc1N1CC2(CCOCC2)C1` [Example 43] is 10 to 50 nM.
To `O=C(Nc1ccc(C(=O)N2CCc3cc(-c4nc5cccc(Cl)c5[nH]4)sc3-c3ccc(F)cc32)cc1)c1cc(F)cnc1N1CC2(CCOCC2)C1` [Example 44] belongs 10 to 50 nM; to `O=C(Nc1ccc(C(=O)N2CCc3cc(-c4ccn[nH]4)sc3-c3ccc(F)cc32)cc1)c1cc(F)cnc1N1CC2(CCOCC2)C1` [Example 45], 10 to 50 nM; to `Cc1cnc(N2CC3(CCOCC3)C2)c(C(=O)Nc2ccc(C(=O)N3CCc4cc(-c5ccn[nH]5)sc4-c4ccc(F)cc43)cc2)c1` [Example 46], 10 to 50 nM.
`O=C(Nc1c(F)cccc1F)c1cc2c(s1)-c1ccc(F)cc1N(C(=O)c1ccc(NC(=O)c3cccnc3N3CC4CCCC4C3)cc1)CC2` (stereo not drawn) [Example 47]: the EC50 was in the range of 10 to 50 nM.
Take `O=C(Nc1c(F)cccc1F)c1cc2c(s1)-c1ccc(F)cc1N(C(=O)c1ccc(NC(=O)c3cccnc3N3C[C@@H]4C[C@H]3CO4)cc1)CC2` [Example 48]: the EC50 is 10 to 50 nM.
To `CC1(C)CCN(c2ncccc2C(=O)Nc2ccc(C(=O)N3CCc4cc(C(=O)Nc5c(F)cccc5F)sc4-c4ccc(F)cc43)cc2)CCS1(=O)=O` [Example 49] belongs more than 50 nM; to `O=C(Nc1c(F)cccc1F)c1cc2c(s1)-c1ccc(F)cc1N(C(=O)c1ccc(NC(=O)c3cccnc3N3CC4CCC(C3)O4)cc1)CC2` [Example 50], 10 to 50 nM.
To `O=C(Nc1c(F)cccc1F)c1cc2c(s1)-c1ccc(F)cc1N(C(=O)c1ccc(NC(=O)c3cccnc3N3CCCOCC3)cc1)CC2` [Example 51] belongs more than 50 nM; to `O=C(Nc1c(F)cccc1F)c1cc2c(s1)-c1ccc(F)cc1N(C(=O)c1ccc(NC(=O)c3cccnc3N3CCCC(F)(F)CC3)cc1)CC2` [Example 52], more than 50 nM.
For `O=C(Nc1c(F)cccc1F)c1cc2c(s1)-c1ccc(F)cc1N(C(=O)c1ccc(NC(=O)c3cccnc3N3CCOc4ccccc4C3)cc1)CC2` [Example 53], the EC50 is more than 50 nM.
To `CCOCCNc1ncccc1C(=O)Nc1ccc(C(=O)N2CCc3cc(C(=O)Nc4c(F)cccc4F)sc3-c3ccc(F)cc32)cc1` [Example 54] belongs more than 50 nM; to `CCOCCN(C)c1ncccc1C(=O)Nc1ccc(C(=O)N2CCc3cc(C(=O)Nc4c(F)cccc4F)sc3-c3ccc(F)cc32)cc1` [Example 55], more than 50 nM.
The figure for `Cc1cc(CNc2ncccc2C(=O)Nc2ccc(C(=O)N3CCc4cc(C(=O)Nc5c(F)cccc5F)sc4-c4ccc(F)cc43)cc2)on1` [Example 56] is more than 50 nM; for `CCS(=O)(=O)CCN(C)c1ncccc1C(=O)Nc1ccc(C(=O)N2CCc3cc(C(=O)Nc4c(F)cccc4F)sc3-c3ccc(F)cc32)cc1` [Example 57] it is more than 50 nM.
In the case of `CC1(CNc2ncccc2C(=O)Nc2ccc(C(=O)N3CCc4cc(C(=O)Nc5c(F)cccc5F)sc4-c4ccc(F)cc43)cc2)CCCO1` (stereo not drawn) [Example 58], the EC50 is more than 50 nM.
The figure for `CCS(=O)(=O)CCNc1ncccc1C(=O)Nc1ccc(C(=O)N2CCc3cc(C(=O)Nc4c(F)cccc4F)sc3-c3ccc(F)cc32)cc1` [Example 59] is more than 50 nM.
The figure for `O=C(Nc1c(F)cccc1F)c1cc2c(s1)-c1ccc(F)cc1N(C(=O)c1ccc(NC(=O)c3cccnc3C3=CCOCC3)cc1)CC2` [Example 60] is more than 50 nM; for `O=C(Nc1c(F)cccc1F)c1cc2c(s1)-c1ccc(F)cc1N(C(=O)c1ccc(NC(=O)c3cccnc3C3CCOCC3)cc1)CC2` [Example 61] it is 10 to 50 nM.
The figure for `O=C(Nc1c(F)cccc1F)c1cc2c(s1)-c1ccc(F)cc1N(C(=O)c1ccc(NC(=O)c3cccnc3-c3ccc(N4CCOCC4)cc3)cc1)CC2` [Example 62] is more than 50 nM.
For the compound `O=C(Nc1c(F)cccc1F)c1cc2c(s1)-c1ccc(F)cc1N(C(=O)c1ccc(NC(=O)c3cccnc3-c3ccncc3)cc1)CC2` [Example 63], the EC50 was more than 50 nM.
Consider `O=C(Nc1c(F)cccc1F)c1cc2c(s1)-c1ccc(F)cc1N(C(=O)c1ccc(NC(=O)c3cccnc3-c3c[nH]c4ccncc34)cc1)CC2` [Example 64], for which the EC50 was more than 50 nM.
To `O=C(Nc1c(F)cccc1F)c1cc2c(s1)-c1ccc(F)cc1N(C(=O)c1ccc(NC(=O)c3cc4c(nc3N3CC5(CCOCC5)C3)CCC4)cc1)CC2` [Example 65] belongs less than 10 nM; to `O=C(Nc1c(F)cc(F)cc1Cl)c1cc2c(s1)-c1ccc(F)cc1N(C(=O)c1ccc(NC(=O)c3cc4c(nc3N3CC5(CCOCC5)C3)CCC4)cc1)CC2` [Example 66], less than 10 nM; to `O=C(Nc1c(F)cc(F)cc1F)c1cc2c(s1)-c1ccc(F)cc1N(C(=O)c1ccc(NC(=O)c3cc4c(nc3N3CC5(CCOCC5)C3)CCC4)cc1)CC2` [Example 67], less than 10 nM.
For the compound `O=C(Nc1ccc(C(=O)N2CCc3cc(-c4nc5ccccc5[nH]4)sc3-c3ccc(F)cc32)cc1)c1cc2c(nc1N1CC3(CCOCC3)C1)CCC2` [Example 68], the EC50 was in the range of 10 to 50 nM.
Regarding `O=C(Nc1c(F)cccc1F)c1cc2c(s1)-c1c(ccc(F)c1F)N(C(=O)c1ccc(NC(=O)c3cccnc3N3CC4(CCOCC4)C3)cc1)CC2` [Example 69], the EC50 was in the range of 10 to 50 nM.
The figure for `O=C(Nc1ccc(C(=O)N2CCc3cc(-c4nc5ccccc5[nH]4)sc3-c3c2ccc(F)c3F)cc1)c1cccnc1N1CC2(CCOCC2)C1` [Example 70] is 10 to 50 nM; for `O=C(Nc1c(F)cc(F)cc1F)c1cc2c(s1)-c1cc(F)c(F)cc1N(C(=O)c1ccc(NC(=O)c3cc(F)cnc3N3CC4(CCOCC4)C3)cc1)CC2` [Example 71] it is 10 to 50 nM.
As for `Cc1cccc(F)c1NC(=O)c1cc2c(s1)-c1cc(F)c(F)cc1N(C(=O)c1ccc(NC(=O)c3cc(F)cnc3N3CC4(CCOCC4)C3)cc1)CC2` [Example 72], the EC50 was 10 to 50 nM.
As for `O=C(Nc1c(F)cccc1F)c1cc2c(s1)-c1cc(F)c(F)cc1N(C(=O)c1ccc(NC(=O)c3cc(F)cnc3N3CC4(CCOCC4)C3)cc1)CC2` [Example 73], the EC50 is 10 to 50 nM.
Consider `O=C(Nc1c(F)cccc1Cl)c1cc2c(s1)-c1cc(F)c(F)cc1N(C(=O)c1ccc(NC(=O)c3cc(F)cnc3N3CC4(CCOCC4)C3)cc1)CC2` [Example 74], for which the EC50 lay within 10 to 50 nM.
The figure for `O=C(Nc1c(F)cccc1C(F)(F)F)c1cc2c(s1)-c1cc(F)c(F)cc1N(C(=O)c1ccc(NC(=O)c3cc(F)cnc3N3CC4(CCOCC4)C3)cc1)CC2` [Example 75] is 10 to 50 nM.
As to `O=C(Nc1c(F)cccc1F)c1cc2c(s1)-c1cc(F)c(F)cc1N(C(=O)c1ccc(NC(=O)c3cccnc3N3CC4(CCOCC4)C3)cc1)CC2` [Example 76], the EC50 was less than 10 nM.
In the case of `O=C(Nc1c(F)cccc1F)c1cc2c(s1)-c1c(cc(F)c(F)c1F)N(C(=O)c1ccc(NC(=O)c3cccnc3N3CC4(CCOCC4)C3)cc1)CC2` [Example 78], the EC50 is less than 10 nM.
The figure for `O=C(Nc1c(F)cc(F)cc1F)c1cc2c(s1)-c1c(cc(F)c(F)c1F)N(C(=O)c1ccc(NC(=O)c3cccnc3N3CC4(CCOCC4)C3)cc1)CC2` [Example 79] is 10 to 50 nM.
For `O=C(Nc1c(F)cccc1Cl)c1cc2c(s1)-c1c(cc(F)c(F)c1F)N(C(=O)c1ccc(NC(=O)c3cccnc3N3CC4(CCOCC4)C3)cc1)CC2` [Example 80], the EC50 lay within 10 to 50 nM.
To `O=C(Nc1c(F)cc(F)cc1Cl)c1cc2c(s1)-c1c(cc(F)c(F)c1F)N(C(=O)c1ccc(NC(=O)c3cccnc3N3CC4(CCOCC4)C3)cc1)CC2` [Example 81] belongs 10 to 50 nM; to `O=C(Nc1ccc(C(=O)N2CCc3cc(-c4nc5ccccc5[nH]4)sc3-c3ccc(Cl)cc32)cc1)c1cccnc1N1CC2(CCOCC2)C1` [Example 82], 10 to 50 nM; to `O=C(Nc1c(F)cccc1F)c1cc2c(s1)-c1ccc(Cl)cc1N(C(=O)c1ccc(NC(=O)c3cccnc3N3CC4(CCOCC4)C3)cc1)CC2` [Example 83], less than 10 nM.

The values above are taken from patent publication US11091501B2, “Heterocyclic compounds as RSV inhibitors” (Enanta Pharmaceuticals, Inc., priority 2017, dated 2021).
